Where “and” joins values, the source holds several entries; their conditions need not be identical. Identical values can stand only once. Like-named read-outs stand apart in the source and are kept apart here.
Columns and labels:
[1] = system: ATCC strain 43300 Staphylococcus aureus
Description: Additional antibiotic was added every 24 hours.
USP<51> Antimicrobial Effectiveness protocol was used as the template experimental paradigm. […] All concentrations were plated out to the 10^−7 dilutionsto ascertain cfu/ml. […] Additional antibiotic was added at the initial concentration every 24 hours.
ATCC strain 43300 Staphylococcus aureus was streaked out for isolations. An isolated colony was chosen, streaked again and incubated. Isolate was chosen and then diluted to a McFarland standard of one. The estimated value was then taken to inoculate tubes containing growth media and 12, 30 or 60 μg/ml oxacillin with approximately 10^5 cfu/ml. These tubes were incubated and plated for counting cfu.
Material was calculated on a 10 ml volume. Sterile oxacillin was added to each experimental condition to a final concentration of 12, 30 or 60 μg/ml antibiotic.
All tubes were then inoculated with a dilution of the selected ATCC strain 43300 Staphylococcus aureus clone giving a final level of colony forming units of 3.3×10^5/ml (log=5.52). The tubes were incubated at 25° C. and mixed periodically. Antibiotic was re-inoculated every 24 hours at the initial concentration to maintain pressure on the organism. Plating was done at 24, 48, 72, and 120 hours. Each condition was plated by diluting 1 ml of growth material into 9 ml of MLB diluent broth. […] This mixture was serial diluted down to 10^−7 with 1 ml placed in triplicate in a sterile petri dish at each dilution point. 20 mls of TSA was added to each dilution, swirled and allowed to solidify. All dilutions were placed in a 35° C. incubator for 24 to 72 hours. Bacterial colonies on each plate were counted and the average taken then changed into log format. Any cfu/ml observed greater than 3.3×10^5 (log=5.5) were recorded as >3.3×10^5.

[2] = system: ATCC strain 43300 Staphylococcus aureus; format: cell-based
Description: (§1) No colonies were observed, indicating total kill.
as §1

[3] = 11% MSM, 12 μg/ml oxacillin, 48 hours
[4] = 11% MSM, 30 μg/ml oxacillin, 24 hours
[5] = 11% MSM, 60 μg/ml oxacillin, 24 hours
[6] = 12% MSM, 12 μg/ml oxacillin, 24 hours
[7] = 12% MSM, 12 μg/ml oxacillin, 48 hours
[8] = 12% MSM, 30 μg/ml oxacillin, 24 hours
[9] = 12% MSM, 60 μg/ml oxacillin, 24 hours
[10] = 13% MSM, 12 μg/ml oxacillin, 24 hours
[11] = 13% MSM, 12 μg/ml oxacillin, 48 hours
[12] = 13% MSM, 30 μg/ml oxacillin, 24 hours
[13] = 13% MSM, 60 μg/ml oxacillin, 24 hours
[14] = 14% MSM, 12 μg/ml oxacillin, 24 hours
[15] = 14% MSM, 12 μg/ml oxacillin, 48 hours
[16] = 14% MSM, 12 μg/ml oxacillin, 72 hours
[17] = 14% MSM, 30 μg/ml oxacillin, 24 hours
[18] = 14% MSM, 60 μg/ml oxacillin, 24 hours
[19] = 15% MSM, 12 μg/ml oxacillin, 24 hours
[20] = 15% MSM, 12 μg/ml oxacillin, 48 hours
[21] = 15% MSM, 30 μg/ml oxacillin, 24 hours
[22] = 15% MSM, 60 μg/ml oxacillin, 24 hours
[23] = 16% MSM, 12 μg/ml oxacillin, 24 hours
[24] = 16% MSM, 12 μg/ml oxacillin, 48 hours
[25] = 16% MSM, 30 μg/ml oxacillin, 24 hours
[26] = 16% MSM, 60 μg/ml oxacillin, 24 hours

CS(C)(=O)=O [MSM, methylsulfonylmethane]
Average Log [1, 3]: 2.8 Log | survival [1, 3]: 6.4 × 10^2 cfu/ml and 5.8 × 10^2 cfu/ml and 6.5 × 10^2 cfu/ml | Average Log ([1]; 11% MSM, 12 μg/ml oxacillin, 72 hours): 3.6 Log | Average Log [1, 4]: 3.57 Log | survival [1, 4]: 3.9 × 10^3 cfu/ml and 3.7 × 10^3 cfu/ml | Average Log ([1]; 11% MSM, 30 μg/ml oxacillin, 48 hours): 2.4 Log | Average Log ([1]; 11% MSM, 30 μg/ml oxacillin, 72 hours): 3.2 Log | Average Log [1, 5]: 2.83 Log | survival [1, 5]: 6.7 × 10^2 cfu/ml and 6.9 × 10^2 cfu/ml | Average Log ([1]; 11% MSM, 60 μg/ml oxacillin, 48 hours): 2.1 Log | Average Log [1, 6]: 3.85 Log | survival [1, 6]: 7.0 × 10^3 cfu/ml and 7.3 × 10^3 cfu/ml | Average Log [1, 7]: 2.8 Log | survival [1, 7]: 3.6 × 10^2 cfu/ml and 4.0 × 10^2 cfu/ml and 4.2 × 10^2 cfu/ml | Average Log ([1]; 12% MSM, 12 μg/ml oxacillin, 72 hours): 3.1 Log | Average Log [1, 8]: 3.59 Log | survival [1, 8]: 3.9 × 10^3 cfu/ml | Average Log ([1]; 12% MSM, 30 μg/ml oxacillin, 48 hours): 2.6 Log | Average Log ([1]; 12% MSM, 30 μg/ml oxacillin, 72 hours): 2.6 Log | Average Log [1, 9]: 2.86 Log | survival [1, 9]: 7.3 × 10^2 cfu/ml and 7.1 × 10^2 cfu/ml and 7.5 × 10^2 cfu/ml | Average Log ([1]; 12% MSM, 60 μg/ml oxacillin, 48 hours): 2.0 Log | Average Log ([1]; 12% MSM, 60 μg/ml oxacillin, 72 hours): 2.4 Log | log reduction in the number of cfu/ml ([1]; 12%-16% MSM, 12 μg/ml oxacillin, 72 hours): 1 log | Average Log [1, 10]: 3.95 Log | survival [1, 10]: 9.0 × 10^3 cfu/ml and 8.7 × 10^3 cfu/ml and 9.2 × 10^3 cfu/ml | Average Log [1, 11]: 2.8 Log | survival [1, 11]: 6.8 × 10^2 cfu/ml and 5.8 × 10^2 cfu/ml | Average Log ([1]; 13% MSM, 12 μg/ml oxacillin, 72 hours): 2.7 Log | Average Log [1, 12]: 3.62 Log | survival [1, 12]: 4.4 × 10^3 cfu/ml and 4.1 × 10^3 cfu/ml and 4.2 × 10^3 cfu/ml | Average Log ([1]; 13% MSM, 30 μg/ml oxacillin, 48 hours): 2.5 Log | Average Log ([1]; 13% MSM, 30 μg/ml oxacillin, 72 hours): 1.8 Log | Average Log [1, 13]: 2.80 Log | survival [1, 13]: 6.3 × 10^2 cfu/ml and 6.0 × 10^2 cfu/ml | Average Log ([1]; 13% MSM, 60 μg/ml oxacillin, 48 hours): 1.7 Log | Average Log ([1]; 13% MSM, 60 μg/ml oxacillin, 72 hours): 1 Log | Average Log [1, 14]: 4.00 Log | survival [1, 14]: 1.00 × 10^4 cfu/ml and 1.02 × 10^4 cfu/ml and 1.01 × 10^4 cfu/ml | Average Log [1, 15]: 1.0 Log | log reduction in the number of cfu/ml [1, 15]: 4.5 log | survival [1, 15]: 1.0 × 10^1 cfu/ml and 1.2 × 10^1 cfu/ml and 1.1 × 10^1 cfu/ml | Average Log [1, 16]: 2.0 Log | log reduction in the number of cfu/ml [1, 16]: 4.5 log | Average Log [1, 17]: 3.78 Log | survival [1, 17]: 6.1 × 10^3 cfu/ml and 6.0 × 10^3 cfu/ml | Average Log ([1]; 14% MSM, 30 μg/ml oxacillin, 48 hours): 2.5 Log | Average Log ([1]; 14% MSM, 30 μg/ml oxacillin, 72 hours): 2.2 Log | Average Log [1, 18]: 2.03 Log | log reduction in the number of cfu/ml [1, 18]: 3.5 log | survival [1, 18]: 1.8 × 10^2 cfu/ml and 1.7 × 10^2 cfu/ml | Average Log ([1]; 14% MSM, 60 μg/ml oxacillin, 48 hours): 2.2 Log | Average Log ([1]; 14% MSM, 60 μg/ml oxacillin, 72 hours): 1.5 Log | Average Log [1, 19]: 4.11 Log | survival [1, 19]: 1.35 × 10^4 cfu/ml and 1.30 × 10^4 cfu/ml and 1.29 × 10^4 cfu/ml | Average Log [1, 20]: 3.7 Log | survival [1, 20]: 5.0 × 10^3 cfu/ml and 4.5 × 10^3 cfu/ml and 4.6 × 10^3 cfu/ml | Average Log ([1]; 15% MSM, 12 μg/ml oxacillin, 72 hours): 2.3 Log | Average Log [1, 21]: 3.94 Log | survival [1, 21]: 8.7 × 10^3 cfu/ml and 8.9 × 10^3 cfu/ml and 8.8 × 10^3 cfu/ml | Average Log ([1]; 15% MSM, 30 μg/ml oxacillin, 48 hours): 2.8 Log | Average Log ([1]; 15% MSM, 30 μg/ml oxacillin, 72 hours): 2.4 Log | Average Log [1, 22]: 3.81 Log | survival [1, 22]: 6.6 × 10^3 cfu/ml and 6.2 × 10^3 cfu/ml and 6.4 × 10^3 cfu/ml | Average Log ([1]; 15% MSM, 60 μg/ml oxacillin, 48 hours): 2.1 Log | Average Log [1, 23]: 3.88 Log | survival [1, 23]: 7.6 × 10^3 cfu/ml and 7.4 × 10^3 cfu/ml | Average Log [1, 24]: 3.7 Log | survival [1, 24]: 4.2 × 10^3 cfu/ml and 5.0 × 10^3 cfu/ml and 4.3 × 10^3 cfu/ml | Average Log ([1]; 16% MSM, 12 μg/ml oxacillin, 72 hours): 2.1 Log | Average Log [1, 25]: 3.91 Log | survival [1, 25]: 8.3 × 10^3 cfu/ml and 8.0 × 10^3 cfu/ml | Average Log ([1]; 16% MSM, 30 μg/ml oxacillin, 48 hours): 2.6 Log | Average Log ([1]; 16% MSM, 30 μg/ml oxacillin, 72 hours): 1.9 Log | Average Log [1, 26]: 3.83 Log | survival [1, 26]: 6.9 × 10^3 cfu/ml | Average Log ([1]; 16% MSM, 60 μg/ml oxacillin, 48 hours): 1.9 Log | Average Log ([1]; 16% MSM, 60 μg/ml oxacillin, 72 hours): 1.8 Log | recovery of MRSA after enrichment ([2]; 11% MSM, 60 μg/ml oxacillin, 96 hours): total kill | recovery of MRSA after enrichment ([2]; 13% MSM, 60 μg/ml oxacillin, 120 hours): total kill | recovery of MRSA after enrichment ([2]; 14% MSM, 60 μg/ml oxacillin, 96 hours): total kill | recovery of MRSA after enrichment ([2]; 15% MSM, 30 μg/ml oxacillin, 120 hours): total kill | recovery of MRSA after enrichment ([2]; 15% MSM, 60 μg/ml oxacillin, 72 hours): total kill | recovery of MRSA after enrichment ([2]; 16% MSM, 60 μg/ml oxacillin, 120 hours): total kill
